The text below walks through data of patent publication US8546615B2, “Solid dapoxetine” (Symed Labs Limited, priority 2009, dated 2013).

This data set can be described thus: Storage/thermal stability of the solid form. The note with it: stable for any period of time, no test described. Type of data set: physicochemical.

Structures are written as SMILES.

In the case of `CN(C)[C@@H](CCOc1cccc2ccccc12)c1ccccc1` (racemic) [solid racemic dapoxetine], the “temperature below which the solid is stable” value is “below 45 °C”.

Take `CN(C)[C@@H](CCOc1cccc2ccccc12)c1ccccc1` (single isomer, unassigned) [solid dapoxetine S enantiomer]: the “temperature below which the solid is stable” value was “below 60 °C”.
